Values after ≈ are worked out from the molar mass of the structure shown. Structures can show the parent of a compound that is named as a salt.
Key:
[1] = Thermodynamic solubility in buffer at 24 h (HPLC of supernatant); type: physicochemical; conditions: for solubility at 24 h: 0.2 m hcl/kcl, as free-base
Source text: The solubility of a compound may be assessed by adding a surplus of the compound to a volume of solvent such that some of the compound is not dissolved, then isolating the non-dissolved compound and measuring the amount. The solubility of a compound may alternatively be assessed by adding a surplus of the compound to a volume of solvent such that some of the compound is not dissolved, and then measure the amount of compound in solution. Measuring the amount of compound in solution may be done using any suitable method, such as HPLC, titration, or spectrometry.
The solubility of AP1189 freebase, tosylate salt and fumarate salt were assessed in buffer solutions. An amount of the compound was suspended in buffer and agitated at ambient temperature for 24 hr, before the supernatant was sampled and analysed for the content of AP1189 by HPLC.

[2] = Initial polymorphism assessment: solubility of AP1189 freebase in solvent systems (aliquot addition); type: physicochemical; conditions: ambient, gently heated to ca. 40 °C if solid remained
Method: An initial polymorphism assessment was carried out in order to identify any potential alternate forms. The initial polymorphism assessment was carried out as follows: To ca. 7 mg of freebase Pattern 1 from DCM evaporation the appropriate solvent system was added in aliquots of 50 μL and if solid remained the vial was gently heated to ca. 40 °C to aid dissolution. Solvent addition was continued until the material had fully dissolved or 1 mL of the appropriate solvent system had been added (<10 mg/mL). Anti-solvent (t-BME) was added dropwise (with stirring) at ambient. If the solutions were already present as slurries prior to addition of anti-solvent, no anti-solvent was added. The experiments were temperature cycled between ambient temperature and 40 °C in 4 hour cycles for ca. 24 h with agitation. Slurries were isolated by centrifugation and solutions allowed to evaporate at ambient temperature. XRPD analysis was carried out for the solids which were obtained.

[3] = test system: MC1R; conditions: cited from earlier work
[4] = test system: MC1R; conditions: biased dual agonist; cited from earlier work
[5] = test system: MC3R; conditions: biased dual agonist; cited from earlier work
[6] = test system: cAMP generation (MC1R and MC3R); conditions: cited from earlier work
[7] = test system: MC1R-induced melanogenesis; conditions: cited from earlier work
[8] = test system: ERK1/2-phosphorylation; conditions: alternative pathways; cited from earlier work
[9] = test system: Ca^2± mobilisation; conditions: alternative pathways; cited from earlier work

NC(N)=N/N=C/C=C/c1cccn1-c1ccccc1[N+](=O)[O-] [AP1189 freebase Pattern 1, 2-{3-[1-(2-nitrophenyl)-1H-pyrrol-2-yl]prop-2-en-1-ylidine}hydrazine-1-carboximidamide]
solubility at 24 h ([1]; pH 1.29, 0.2 M HCl/KCl, initial pH 2.05 → 1.24, 24 h pH 1.29, input 83* mM (estimated), ambient temperature): > 44.1 mM | solubility at 24 h ([1]; pH 1.54, FaSSGF (Fasted State Simulated Gastric Fluid), initial pH 1.60, 24 h pH 1.54, ambient temperature): 13.9 mM (≈ 4140 µg/mL) | Solubility at pH 4.5 (in words) ([1]; pH 4.5, compared to AP1189 fumarate Pattern 1): high solubility at pH 4.5 compared to test compound AP1189 fumarate Pattern 1

NC(N)=N/N=C/C=C/c1cccn1-c1ccccc1[N+](=O)[O-] [AP1189, 2-{3-[1-(2-nitrophenyl)-1H-pyrrol-2-yl]prop-2-en-1-ylidine}hydrazine-1-carboximidamide]
solubility ([2]; Water): < 7000 µg/mL | solubility ([2]; organic solvent or mixture, 2-Methyl THF): ≥ 10000 µg/mL | solubility ([2]; organic solvent or mixture, 2-Propanol): < 7000 µg/mL | solubility ([2]; organic solvent or mixture, 90% 2-Propanol: 10% Water (% v/v) (calculated aw 0.6)): ≥ 10000 µg/mL | solubility ([2]; organic solvent or mixture, 98.5% Ethanol : 1.5% Water (% v/v) (calculated aw 0.2)): ≥ 15000 µg/mL | solubility ([2]; organic solvent or mixture, Acetone): ≥ 49000 µg/mL | solubility ([2]; organic solvent or mixture, Acetonitrile): ≥ 27000 µg/mL | solubility ([2]; organic solvent or mixture, Dichloromethane): < 7000 µg/mL | solubility ([2]; organic solvent or mixture, Dimethylsulfoxide): ≥ 136000 µg/mL | solubility ([2]; organic solvent or mixture, Ethanol): ≥ 13000 µg/mL | solubility ([2]; organic solvent or mixture, Ethyl Acetate): < 7000 µg/mL | solubility ([2]; organic solvent or mixture, Heptane): < 7000 µg/mL | solubility ([2]; organic solvent or mixture, Methanol): ≥ 142000 µg/mL | solubility ([2]; organic solvent or mixture, Methylethyl Ketone): ≥ 17000 µg/mL | solubility ([2]; organic solvent or mixture, Methylisobutyl Ketone): < 7000 µg/mL | solubility ([2]; organic solvent or mixture, Tetrahydrofuran): ≥ 35000 µg/mL | solubility ([2]; organic solvent or mixture, Toluene): < 7000 µg/mL | solubility ([2]; organic solvent or mixture, tert-Butylmethyl ether): < 7000 µg/mL | Solubility at acidic conditions (in words) ([1]; acidic conditions): highly soluble at acidic conditions | Solubility at pH 1.2 (in words) [1]: high solubility at pH 1.2 | Solubility at pH 1.2 (in words) ([1]; listed as AP1189 free base): high solubility at pH 1.2 compared to the test compound AP1189 fumarate Pattern 1 | binding to MC1R [3]: shown to bind the MC1R | agonism at MC1R [4]: biased dual agonist at receptors MC1R and MC3R | agonism at MC3R [5]: biased dual agonist at receptors MC1R and MC3R | canonical cAMP generation [6]: does not provoke canonical cAMP generation | MC1R-induced melanogenesis [7]: no MC1R-induced melanogenesis | ERK1/2-phosphorylation [8]: appear to induce alternative pathways including ERK1/2-phosphorylation | Ca2+ mobilisation [9]: appear to induce alternative pathways including ERK1/2-phosphorylation and Ca^2 mobilisation

NC(N)=N/N=C/C=C/c1cccn1-c1ccccc1[N+](=O)[O-] [Fumarate Salt Pattern 1]
solubility at 24 h ([1]; pH 1.29, 0.2 M HCl/KCl, initial pH 1.35 → 1.18, 24 h pH 1.29, input 38 mM, ambient temperature): 10.9 mM

NC(N)=N/N=C/C=C/c1cccn1-c1ccccc1[N+](=O)[O-] [Tosylate Salt Pattern 1, 2-{3-[1-(2-nitrophenyl)-1H-pyrrol-2-yl]prop-2-en-1-ylidine}hydrazine-1-carboximidamide tosylate]
solubility at 24 h ([1]; pH 1.26, 0.2 M HCl/KCl, initial pH 1.22, 24 h pH 1.26, input 31 mM, ambient temperature): 0.31 mM | Solubility at low pH (in words) ([1]; low pH, e.g. pH 1.2-1.3 or pH 4.5): low solubility at low pH

Reference: patent US20260356800A1, “POLYMORPH OF PHENYL PYRROLE HYDRAZINE CARBOXIMIDAMIDE COMPOUND” (SYNACT PHARMA ApS, priority 2022, published 2026)
